Source: ChEMBL document CHEMBL6096696, “Structure-Activity Relationship Studies of an Autophagy Inhibitor That Targets the ATG14L-Beclin1 Protein-Protein Interaction Reveal Modifications That Improve Potency and Solubility and Maintain Selectivity” (J Med Chem, 2025)
Values after ≈ are worked out from the molar mass of the structure shown.

How the values were obtained:
[1] = Selectivity ratio of inhibition of C-terminal Nano-luc tagged UVRAG/C-terminal Halo-tagged Beclin 1 (unknown origin) PPI tranfected with HEK293T cells to inhibition of C-terminal Nano-luc tagged ATG14L/C-terminal Halo-tagged Beclin 1 (unknown origin) PPI tranfected with HEK293T cells
HEK293T [2] = experiment: Inhibition of C-terminal Nano-luc tagged UVRAG/C-terminal Halo-tagged Beclin 1 (unknown origin) PPI tranfected with HEK293T cells using […] at 100 uM incubated for 24 hrs by […] assay relative to control; type: cell-based; conditions: Homo sapiens, values are per cent of control
HEK293T [3] = experiment: Inhibition of C-terminal Nano-luc tagged ATG14L/C-terminal Halo-tagged Beclin 1 (unknown origin) PPI tranfected with HEK293T cells using […] at 100 uM incubated for 24 hrs by […] assay relative to control; type: cell-based; conditions: Homo sapiens, values are per cent of control
[4] = Kinetic aqueous solubility of compound in PBS at pH 7.4 by absorbance based analysis; type: physicochemical; conditions: read-out: Kinetic_solubility

SMILES	Selectivity ratio [1]	solubility kinetic [4] [µM]	residual binding, % of control (HEK293T [2]) [%]	residual binding, % of control (HEK293T [3]) [%]
Cc1cccc(NS(=O)(=O)c2ccc3c(c2)OCC(=O)N3Cc2ccco2)c1C	–	> 100	–	109
CCCN1C(=O)COc2ccc(S(=O)(=O)Nc3ccccc3)cc21	–	> 100	–	134
CCCN1C(=O)COc2ccc(S(=O)(=O)Nc3cc(OC)ccc3OC)cc21	–	> 100	–	107
CCCN1C(=O)COc2ccc(NC(=O)c3ccccc3Br)cc21	–	> 100	–	119
CCCN1C(=O)COc2ccc(NS(=O)(=O)c3cccc(C)c3C)cc21	–	> 100	–	83.2
CCCN1C(=O)COc2ccc(Nc3ccccc3Br)cc21	1.49	> 100	108	82.9
CCCN1C(=O)COc2ccc(NS(=O)(=O)c3cccc(Br)c3)cc21	–	> 100	–	101
CCCN1C(=O)COc2ccc(S(=O)(=O)Nc3cccc(Cl)c3C)cc21	–	> 100	–	131
CCCN1C(=O)COc2ccc(NS(=O)(=O)c3cc(OC)ccc3OC)cc21	–	> 100	–	103
CCCN1C(=O)COc2ccc(S(=O)(=O)N3CCCCC3)cc21	–	> 100	–	109
CCCN1C(=O)COc2ccc(NC(=O)Cc3ccccc3)cc21	–	> 100	–	127
CCCN1C(=O)COc2ccc(NS(=O)(=O)c3ccccc3)cc21	–	> 100	–	89.2
CCCN1C(=O)COc2ccc(S(=O)(=O)Nc3ccccc3Br)cc21	–	> 100	–	132
CCCN1C(=O)COc2ccc(NS(=O)(=O)c3cccc(C)c3)cc21	–	> 100	–	96.2
Cc1cccc(NS(=O)(=O)c2ccc3c(c2)N(CC2CCCCC2)C(=O)CO3)c1C	–	> 100	–	106
CCCN1C(=O)COc2ccc(S(=O)(=O)Nc3ccccc3F)cc21	–	> 100	–	147
CCCN1C(=O)COc2ccc(S(=O)(=O)NCc3ccccc3)cc21	–	> 100	–	116
Cc1cccc(NS(=O)(=O)c2ccc3c(c2)OCC(=O)N3Cc2ccccc2)c1C	–	50 (≈ 21.1 µg/mL)	–	105
CCCN1C(=O)COc2ccc(S(=O)(=O)Nc3c(C)cccc3C)cc21	–	> 100	–	105
CCCN1C(=O)COc2ccc(NS(=O)(=O)c3ccc(F)cc3C)cc21	–	> 100	–	99.8

SMILES	Selectivity ratio [1]	solubility kinetic [4] [µM]	residual binding, % of control (HEK293T [2]) [%]	residual binding, % of control (HEK293T [3]) [%]
Cc1cccc(NS(=O)(=O)c2ccc3c(c2)OCC(=O)N3CCc2ccccc2)c1C	–	> 100	–	103
CCCN1C(=O)COc2ccc(NS(=O)(=O)c3ccccc3Br)cc21	–	> 100	–	88.1
CCCN1C(=O)COc2ccc(NC(=O)c3cccc(Br)c3)cc21	–	> 100	–	112
Cc1cccc(NS(=O)(=O)c2ccc3c(c2)OCC(=O)N3Cc2ccccn2)c1C	–	> 100	–	112
CCCN1C(=O)COc2ccc(S(=O)(=O)N3CCOCC3)cc21	–	> 100	–	110
Cc1cccc(NS(=O)(=O)c2ccc3c(c2)N(C)C(=O)CO3)c1C	–	> 100	–	106
CCCN1C(=O)COc2ccc(NC(=O)c3cccc([N+](=O)[O-])c3)cc21	–	> 100	–	104
CCCN1C(=O)COc2ccc(Nc3cccc(C)c3C)cc21	1.04	> 100	108	104
CCCN1C(=O)COc2ccc(NS(=O)(=O)c3cccc(C(F)(F)F)c3)cc21	–	> 100	–	80
CCCN1C(=O)COc2ccc(NC(=O)c3cccc(C)c3C)cc21	–	> 100	–	92
CCCN1C(=O)COc2ccc(Nc3cccc(Br)c3)cc21	1.14	50 (≈ 18.1 µg/mL)	116	101
CCCN1C(=O)COc2ccc(S(=O)(=O)Nc3cccc(Cl)c3)cc21	–	> 100	–	145
CCCN1C(=O)COc2ccc(NS(=O)(=O)c3c(C(C)C)cc(C(C)C)cc3C(C)C)cc21	–	> 100	–	59.9
CCCN1C(=O)COc2ccc(S(=O)(=O)Nc3cccc(N4CCOCC4)c3)cc21	–	> 100	–	108
CCCN1C(=O)COc2ccc(NS(=O)(=O)c3cccc(OC)c3)cc21	–	> 100	–	99.8
Cc1cccc(NS(=O)(=O)c2ccc3c(c2)N(CC(C)O)C(=O)CO3)c1C (stereo not given)	–	> 100	–	107
CCCN1C(=O)COc2ccc(NC(=O)c3ccccc3)cc21	–	> 100	–	106
CCCN1C(=O)COc2ccc(Nc3ccccc3)cc21	1.54	> 100	116	75.8
CCCCN1C(=O)COc2ccc(S(=O)(=O)Nc3cccc(C)c3C)cc21	–	> 100	–	110

The next lines start with results.

Selectivity ratio [1]	solubility kinetic [4] [µM]	SMILES	residual binding, % of control (HEK293T [2]) [%]	residual binding, % of control (HEK293T [3]) [%]
1.23	> 100	O=C1COc2ccc(Nc3ccccc3F)cc2N1Cc1noc(C2CCC2)n1	101	82
1.13	> 100	Cc1cccc(-c2ccc3c(c2)N(Cc2noc(C4CCC4)n2)C(=O)CO3)c1	102	90.8
1.13	100 (≈ 42.5 µg/mL)	Cc1cccc(Nc2ccc3c(c2)N(Cc2noc(C4CCC4)n2)C(=O)CO3)c1Cl	102	89.8
1.27	> 100	CC(C)c1ccccc1Nc1ccc2c(c1)N(Cc1noc(C3CCC3)n1)C(=O)CO2	105	82.4
1.14	> 100	O=C1COc2ccc(-c3ccc(F)cc3F)cc2N1Cc1noc(C2CCC2)n1	100	87.9
–	> 100	CCCN1C(=O)COc2ccc(NS(=O)(=O)c3ccc(Cl)cc3Cl)cc21	–	101
1.11	50 (≈ 19 µg/mL)	O=C1COc2ccc(-c3cccc(F)c3)cc2N1Cc1noc(C2CCC2)n1	101	90.3
1.01	> 100	Cc1ccccc1-c1ccc2c(c1)N(Cc1noc(C3CCC3)n1)C(=O)CO2	110	109
1.06	> 100	O=C1COc2ccc(-c3ccccc3)cc2N1Cc1noc(C2CCC2)n1	105	98.7
1.11	> 100	O=C1COc2ccc(Nc3ccccc3Cl)cc2N1Cc1noc(C2CCC2)n1	104	93.6
1.05	> 100	O=C1COc2ccc(-c3cccc(OC(F)(F)F)c3)cc2N1Cc1noc(C2CCC2)n1	110	105
1.25	25 (≈ 11.1 µg/mL)	O=C1COc2ccc(Nc3cccc(Cl)c3Cl)cc2N1Cc1noc(C2CCC2)n1	108	86.2
1.11	> 100	O=C1COc2ccc(-c3cccc(F)c3F)cc2N1Cc1noc(C2CCC2)n1	94.8	85.1
1.06	> 100	COc1ccccc1-c1ccc2c(c1)N(Cc1noc(C3CCC3)n1)C(=O)CO2	104	98.3
1.15	> 100	O=C1COc2ccc(-c3ccccc3O)cc2N1Cc1noc(C2CCC2)n1	109	94.9
1.24	> 100	O=C1COc2ccc(-c3ccccc3F)cc2N1Cc1noc(C2CCC2)n1	98	79
1.21	> 100	CC(C)c1cccc(-c2ccc3c(c2)N(Cc2noc(C4CCC4)n2)C(=O)CO3)c1	99.1	81.6
1.29	50 (≈ 22.3 µg/mL)	O=C1COc2ccc(Nc3ccc(Cl)cc3Cl)cc2N1Cc1noc(C2CCC2)n1	102	79.1
1.5	> 100	Cc1cccc(Nc2ccc3c(c2)N(Cc2noc(C4CCC4)n2)C(=O)CO3)c1C	119	79.3
1.18	> 100	CC(C)c1cccc(Nc2ccc3c(c2)N(Cc2noc(C4CCC4)n2)C(=O)CO3)c1	105	88.7
1.02	50 (≈ 16.5 µg/mL)	CCCN1C(=O)COc2ccc(Nc3cccc(Cl)c3C)cc21	104	101
–	50 (≈ 19 µg/mL)	CCCN1C(=O)COc2ccc(NC(=O)c3ccc(Cl)cc3Cl)cc21	–	109
